Values of other authors, collected in PMC4164784, “4E-BPs require non-canonical 4E-binding motifs and a lateral surface of eIF4E to repress translation” (Nature Communications, 2014).

Test system: eIF4E
Conditions: 4E-BP1,2 non-canonical motifs; cited from earlier work
Excerpt: The immunoprecipitation assays shown in Fig. 1e–g indicate that similar to CUP, Thor and 4E-T contain NC motifs that interact with the lateral binding surface of eIF4E. In human 4E-BP1,2, the NC IPGVTS/T motif (located C-terminally to the C motif), increases the binding affinity of the proteins for eIF4E by approximately three orders of magnitude. However, the IPGVTS/T motif is not conserved across the animal kingdom (Supplementary Fig. 2c). Nevertheless, several hydrophobic residues are present in the corresponding region in Dm Thor (residues Pro76–Pro84; Supplementary Fig. 2c). || Owing to their lack of conservation, it has remained unclear whether non-canonical motifs are present in all 4E-BPs[38]. […] At the functional level, non-canonical motifs have been proposed to play an auxiliary role and have been mainly implicated in the regulation of the affinity of eIF4E for the mRNA cap structure through allosteric effects. Specifically, the binding of the 4E-BP1,2 non-canonical ...

human 4E-BP1,2: human eIF4E-binding proteins 1 and 2 with NC IPGVTS/T motif
effect of NC motif binding on affinity of eIF4E for the cap structure (in words): increases the affinity for the cap structure
